This is an account of results in patent US12421253B2 (Mirati Therapeutics, Inc., priority 2020, dated 2025).

One assay deals with T1, KRas^G12V (Homo sapiens, UniProt P01116, G12V).
T1 construct: […]; biotin (biotinylated); purchased Accelegan Inc
Description: KRas binding assay (TR-FRET displacement of Cy5 labelled tracer). A general note: TR-FRET usually uses a lanthanide donor and a delayed reading to cut background.

For another assay, the target named is KRas^G13D (Homo sapiens, UniProt P01116, G13D). As to the kind of experiment: biochemical.
Chain of KRas^G13D (P01116 1-169 isoform P01116-2 G13D): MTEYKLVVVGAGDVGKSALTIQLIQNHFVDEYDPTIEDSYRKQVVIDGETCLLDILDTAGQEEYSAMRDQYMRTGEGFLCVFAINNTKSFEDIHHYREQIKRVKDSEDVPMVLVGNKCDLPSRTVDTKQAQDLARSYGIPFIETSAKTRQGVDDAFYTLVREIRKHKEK
The target in a further assay is T2, KRas^G12A (Homo sapiens, UniProt P01116, G12A).
T2 construct: […]; biotin (biotinylated); purchased Accelegan Inc
T2 sequence (P01116 1-169 isoform P01116-2 G12A): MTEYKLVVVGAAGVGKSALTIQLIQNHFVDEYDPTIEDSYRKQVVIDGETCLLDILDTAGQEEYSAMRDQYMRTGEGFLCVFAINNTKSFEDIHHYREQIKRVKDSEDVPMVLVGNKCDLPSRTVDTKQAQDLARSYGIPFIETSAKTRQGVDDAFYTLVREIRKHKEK
Description: KRas binding assay (TR-FRET displacement of Cy5 labelled tracer).

For another assay, the target named is T3, KRas^G12D (Homo sapiens, UniProt P01116, G12D).
T3 construct: […]; biotin (biotinylated); purchased Accelegan Inc
T3 sequence (P01116 1-169 isoform P01116-2 G12D): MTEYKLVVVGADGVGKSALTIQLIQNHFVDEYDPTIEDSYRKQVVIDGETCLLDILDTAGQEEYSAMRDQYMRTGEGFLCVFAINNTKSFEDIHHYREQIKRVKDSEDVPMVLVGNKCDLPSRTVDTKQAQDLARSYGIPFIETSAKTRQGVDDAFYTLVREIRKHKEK
The description is as above.

Another assay addresses T4, KRas^G12R (Homo sapiens, UniProt P01116, G12R).
T4 construct: […]; biotin (biotinylated); purchased Accelegan Inc
Described as above.

The target of a further assay is KRas^G12C (Homo sapiens, UniProt P01116, G12C). Description: biochemical.
Chain of KRas^G12C (P01116 1-169 isoform P01116-2 G12C): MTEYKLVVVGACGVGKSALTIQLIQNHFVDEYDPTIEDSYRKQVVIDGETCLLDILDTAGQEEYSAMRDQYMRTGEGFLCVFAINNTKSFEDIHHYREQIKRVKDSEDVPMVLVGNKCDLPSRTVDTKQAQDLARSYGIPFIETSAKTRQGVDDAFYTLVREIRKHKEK
In the next assay the target is T5, KRas^WT (Homo sapiens, UniProt P01116).
T5 construct: […]; biotin (biotinylated); purchased Accelegan Inc
T5 sequence (P01116 1-169 isoform P01116-2): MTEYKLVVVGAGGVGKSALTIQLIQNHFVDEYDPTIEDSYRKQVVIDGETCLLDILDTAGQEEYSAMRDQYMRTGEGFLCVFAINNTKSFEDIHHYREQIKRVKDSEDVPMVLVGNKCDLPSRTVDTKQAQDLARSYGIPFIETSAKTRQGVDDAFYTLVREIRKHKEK
Description: KRas binding assay (TR-FRET displacement of Cy5 labelled tracer).

In the next assay the target is T6, KRas^G12S (Homo sapiens, UniProt P01116, G12S).
T6 construct: […]; biotin (biotinylated); purchased Accelegan Inc
T6 sequence (P01116 1-169 isoform P01116-2 G12S): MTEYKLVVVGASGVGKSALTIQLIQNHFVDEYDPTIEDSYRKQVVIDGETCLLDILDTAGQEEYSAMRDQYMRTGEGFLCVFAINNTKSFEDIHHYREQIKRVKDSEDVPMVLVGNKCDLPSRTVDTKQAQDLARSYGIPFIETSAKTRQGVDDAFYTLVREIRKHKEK
The assay is described as above.

In another assay the target is KRas^Q61H (Homo sapiens, UniProt P01116, Q61H). As to the kind of experiment: biochemical.
Chain of KRas^Q61H (P01116 1-169 isoform P01116-2 Q61H): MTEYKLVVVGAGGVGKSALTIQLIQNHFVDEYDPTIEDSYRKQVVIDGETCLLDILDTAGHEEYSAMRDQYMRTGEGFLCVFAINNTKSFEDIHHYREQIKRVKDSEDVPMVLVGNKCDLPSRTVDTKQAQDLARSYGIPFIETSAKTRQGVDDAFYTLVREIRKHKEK

T4 sequence (P01116 1-169 isoform P01116-2 G12R): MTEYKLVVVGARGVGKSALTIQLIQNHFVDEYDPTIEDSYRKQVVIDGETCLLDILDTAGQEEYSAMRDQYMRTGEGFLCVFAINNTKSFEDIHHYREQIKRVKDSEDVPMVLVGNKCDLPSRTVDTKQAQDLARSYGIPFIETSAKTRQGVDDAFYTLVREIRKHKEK
T1 sequence (P01116 1-169 isoform P01116-2 G12V): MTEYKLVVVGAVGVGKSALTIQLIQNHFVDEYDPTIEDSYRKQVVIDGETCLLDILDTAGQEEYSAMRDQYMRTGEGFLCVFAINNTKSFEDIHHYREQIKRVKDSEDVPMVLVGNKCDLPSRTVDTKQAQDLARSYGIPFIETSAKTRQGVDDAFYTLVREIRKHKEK
Description for KRas^G12A: (§1) The ability of a compound to bind to KRas was measured using a TR-FRET displacement assay. […] After a 60-minute incubation at room temperature, the reaction was measured using a BMG LABTECH CLARIO star Plus via TR-FRET. […] The POC values were fit to a 4-parameter IC50 equation and the IC50 value reported.
Description for KRas^G12C: as §1
Description for KRas^G12D: as §1
Description for KRas^G12R: as §1
Description for KRas^G12S: as §1
Description for KRas^G12V: as §1
Description for KRas^G13D: as §1
Description for KRas^Q61H: as §1
Description for KRas^WT: as §1

Take `CCc1cccc2cccc(N3CCc4c(nc(OCC56CCCN5CCC6)nc4N4CCCn5nc(C)cc5C4)C3)c12` [Example 56, 7-(8-ethylnaphthalen-1-yl)-2-((hexahydro-1H-pyrrolizin-7a-yl)methoxy)-4-(2-methyl-7,8-dihydro-4H-pyrazolo[1,5-a][1,4]diazepin-5(6H)-yl)-5,6,7,8-tetrahydropyrido[3,4-d]pyrimidine]: the half-maximal inhibitory concentration (IC50) (in general, the concentration at which inhibition is half-maximal) on KRas^G12V stood at 1.62 µM; against KRas^G13D, 5.72 µM; on KRas^G12A, 3.01 µM; at KRas^G12D, 0.874 µM; on KRas^G12R, 1.81 µM; against KRas^G12C, 1.65 µM. Besides, the figures for the IC50 at KRas^WT, on KRas^G12S and on KRas^Q61H were 5.12 µM, 2.03 µM and 5.56 µM, respectively.

Take `O=C1NC(=O)C2CN(c3nc(OCC45CCCN4CCC5)nc4c3CCN(c3cccc5cccc(Br)c35)C4)CC12` (stereo not drawn) [Example 78, 5-(7-(8-bromonaphthalen-1-yl)-2-((hexahydro-1H-pyrrolizin-7a-yl)methoxy)-5,6,7,8-tetrahydropyrido[3,4-d]pyrimidin-4-yl)tetrahydropyrrolo[3,4-c]pyrrole-1,3(2H,3aH)-dione]: the half-maximal inhibitory concentration (IC50) was 0.041 µM on KRas^G12V; 0.067 µM on KRas^G13D; 0.059 µM on KRas^G12A; 0.03 µM at KRas^G12D; 0.081 µM at KRas^G12R; 0.08 µM at KRas^G12C. Also, the concentration for half-maximal inhibition (IC50) on KRas^WT was determined as 0.073 µM; on KRas^G12S, 0.022 µM; against KRas^Q61H it was 0.112 µM.

In the case of `O=C1NC(=O)C2CN(c3nc(OCC45CCCN4CCC5)nc4c3CCN(c3cccc5cccc(Cl)c35)C4)CC12` (stereo not drawn) [Example 79, 5-(7-(8-chloronaphthalen-1-yl)-2-((hexahydro-1H-pyrrolizin-7a-yl)methoxy)-5,6,7,8-tetrahydropyrido[3,4-d]pyrimidin-4-yl)tetrahydropyrrolo[3,4-c]pyrrole-1,3(2H,3aH)-dione], the IC50 at KRas^G12V worked out at 0.067 µM; at KRas^G13D, 0.111 µM; on KRas^G12A it was 0.128 µM; at KRas^G12D, 0.053 µM; at KRas^G12R it was 0.135 µM; at KRas^G12C, 0.116 µM. The IC50 at KRas^WT is 0.109 µM; on KRas^G12S it was 0.035 µM; against KRas^Q61H it was 0.151 µM.

Regarding `Cc1cccc2cccc(N3CCc4c(nc(OCC56CCCN5CCC6)nc4N4CC5C(=O)NC(=O)C5C4)C3)c12` (stereo not drawn) [Example 80, 5-(2-((hexahydro-1H-pyrrolizin-7a-yl)methoxy)-7-(8-methylnaphthalen-1-yl)-5,6,7,8-tetrahydropyrido[3,4-d]pyrimidin-4-yl)tetrahydropyrrolo[3,4-c]pyrrole-1,3(2H,3aH)-dione], the IC50 at KRas^G12V is 0.13 µM; against KRas^G13D it was 0.213 µM; at KRas^G12A, 0.428 µM; on KRas^G12D, 0.121 µM; at KRas^G12R, 0.285 µM; on KRas^G12C, 0.211 µM. Also, the figures for the IC50 on KRas^WT, at KRas^G12S and against KRas^Q61H were 0.2 µM, 0.068 µM and 0.26 µM, respectively.

On to `O=C1NC(=O)C2CN(c3nc(OCC45CCCN4CCC5)nc4c3CCN(c3cccc5cccc(F)c35)C4)CC12` (stereo not drawn) [Example 81, 5-(7-(8-fluoronaphthalen-1-yl)-2-((hexahydro-1H-pyrrolizin-7a-yl)methoxy)-5,6,7,8-tetrahydropyrido[3,4-d]pyrimidin-4-yl)tetrahydropyrrolo[3,4-c]pyrrole-1,3(2H,3aH)-dione], for which the concentration for half-maximal inhibition (IC50) on KRas^G12V amounted to 3.4 µM; at KRas^G13D, 3.72 µM; on KRas^G12A, 4.05 µM; at KRas^G12D it was 5.4 µM; on KRas^G12R, 4.02 µM; against KRas^G12C it was 3.56 µM. Further, the half-inhibitory concentration (IC50) on KRas^WT stood at 3.61 µM; on KRas^G12S, 1.16 µM; against KRas^Q61H it was 5.33 µM.

In the case of `CCc1cccc2cccc(N3CCc4c(nc(OCC56CCCN5CCC6)nc4N4CCCC(n5cccn5)C4)C3)c12` (stereo not drawn) [Example 82, 4-(3-(1H-pyrazol-1-yl)piperidin-1-yl)-7-(8-ethylnaphthalen-1-yl)-2-((tetrahydro-1H-pyrrolizin-7a(5H)-yl)methoxy)-5,6,7,8-tetrahydropyrido[3,4-d]pyrimidine], the concentration for half-maximal inhibition (IC50) at KRas^G12V was 0.958 µM; against KRas^G13D it was 0.552 µM; on KRas^G12A, 0.628 µM; on KRas^G12D, 1.12 µM; on KRas^G12R, 0.291 µM; against KRas^G12C, 0.475 µM. Also, the IC50 came out at 0.712 µM at KRas^WT, 0.696 µM at KRas^G12S and 0.606 µM on KRas^Q61H.

Regarding `CCc1cccc2cccc(N3CCc4c(nc(OCC56CCCN5CCC6)nc4N4CCCC(N5CC(C)CS5(=O)=O)C4)C3)c12` (stereo not drawn) [Example 83, 2-(1-(7-(8-ethylnaphthalen-1-yl)-2-((tetrahydro-1H-pyrrolizin-7a(5H)-yl)methoxy)-5,6,7,8-tetrahydropyrido[3,4-d]pyrimidin-4-yl)piperidin-3-yl)-4-methylisothiazolidine 1,1-dioxide], the half-inhibitory concentration (IC50) worked out at 0.427 µM on KRas^G12V; 0.139 µM against KRas^G13D; 0.206 µM on KRas^G12A; 0.929 µM on KRas^G12D; 0.311 µM at KRas^G12R; 0.19 µM on KRas^G12C. In addition, the results for the half-inhibitory concentration (IC50) on KRas^WT, at KRas^G12S and on KRas^Q61H were 0.083 µM, 0.24 µM and 0.189 µM, respectively.

For the compound `CCc1cccc2cccc(N3CCc4c(nc(OCC56CCCN5CCC6)nc4N4CCCC(c5nc(N)n(C)n5)C4)C3)c12` (stereo not drawn) [Example 84, 3-(1-(7-(8-ethylnaphthalen-1-yl)-2-((tetrahydro-1H-pyrrolizin-7a(5H)-yl)methoxy)-5,6,7,8-tetrahydropyrido[3,4-d]pyrimidin-4-yl)piperidin-3-yl)-1-methyl-1H-1,2,4-triazol-5-amine], the IC50 worked out at 0.291 µM at KRas^G12V; 0.696 µM against KRas^G13D; 0.215 µM on KRas^G12A; 2.11 µM at KRas^G12D; 0.104 µM at KRas^G12R; 0.161 µM against KRas^G12C. In addition, the IC50 at KRas^WT is 0.838 µM; at KRas^G12S, 0.351 µM; on KRas^Q61H, 0.734 µM.

For the compound `CCc1cccc2cccc(N3CCc4c(nc(OCC56CCCN5CCC6)nc4N4CCCC(N5CCCS5(=O)=O)C4)C3)c12` (stereo not drawn) [Example 85, 2-(1-(7-(8-ethylnaphthalen-1-yl)-2-((tetrahydro-1H-pyrrolizin-7a(5H)-yl)methoxy)-5,6,7,8-tetrahydropyrido[3,4-d]pyrimidin-4-yl)piperidin-3-yl)isothiazolidine 1,1-dioxide], the concentration for half-maximal inhibition (IC50) on KRas^G12V was found to be 0.491 µM; at KRas^G13D, 0.186 µM; at KRas^G12A, 0.223 µM; on KRas^G12D, 1.03 µM; at KRas^G12R, 0.399 µM; on KRas^G12C, 0.274 µM. In addition, the IC50 at KRas^WT was determined as 0.14 µM; on KRas^G12S it was 0.263 µM; at KRas^Q61H, 0.213 µM.

Regarding `CCc1cccc2cccc(N3CCc4c(nc(OCC56CCCN5CCC6)nc4N4CCC(CO)C(O)C4)C3)c12` (stereo not drawn) [Example 86, 1-(7-(8-ethylnaphthalen-1-yl)-2-((tetrahydro-1H-pyrrolizin-7a(5H)-yl)methoxy)-5,6,7,8-tetrahydropyrido[3,4-d]pyrimidin-4-yl)-4-(hydroxymethyl)piperidin-3-ol], the IC50 on KRas^G12V was 0.498 µM; at KRas^G13D, 0.151 µM; at KRas^G12A it was 0.225 µM; on KRas^G12D, 1.32 µM; at KRas^G12R, 0.465 µM; at KRas^G12C, 0.576 µM. Further, the 50% inhibitory concentration (IC50) at KRas^WT is 0.158 µM; at KRas^G12S, 0.304 µM; against KRas^Q61H it was 0.194 µM.

As to `CCc1cccc2cccc(N3CCc4c(nc(OCC56CCCN5CCC6)nc4N4CCCC(c5cc(=O)[nH][nH]5)C4)C3)c12` (stereo not drawn) [Example 87, 5-(1-(7-(8-ethylnaphthalen-1-yl)-2-((tetrahydro-1H-pyrrolizin-7a(5H)-yl)methoxy)-5,6,7,8-tetrahydropyrido[3,4-d]pyrimidin-4-yl)piperidin-3-yl)-1,2-dihydro-3H-pyrazol-3-one], the half-inhibitory concentration (IC50) at KRas^G12V is 1.87 µM; against KRas^G13D it was 1.47 µM; at KRas^G12A it was 1.14 µM; on KRas^G12D, 4.88 µM; on KRas^G12R, 0.165 µM; against KRas^G12C, 0.47 µM. Moreover, the half-inhibitory concentration (IC50) on KRas^WT was found to be 1.01 µM; at KRas^G12S it was 1.15 µM; at KRas^Q61H, 0.844 µM.

Take `CCc1cccc2cccc(N3CCc4c(nc(OCC56CCCN5CCC6)nc4N4CCOCC(n5cncn5)C4)C3)c12` (stereo not drawn) [Example 88, 4-(7-(8-ethylnaphthalen-1-yl)-2-((tetrahydro-1H-pyrrolizin-7a(5H)-yl)methoxy)-5,6,7,8-tetrahydropyrido[3,4-d]pyrimidin-4-yl)-6-(1H-1,2,4-triazol-1-yl)-1,4-oxazepane]: the half-maximal inhibitory concentration (IC50) turned out to be 0.403 µM on KRas^G12V; 0.176 µM at KRas^G13D; 0.475 µM on KRas^G12A; 1.11 µM at KRas^G12D; 0.47 µM on KRas^G12R; 0.482 µM against KRas^G12C. For the same compound, the IC50 on KRas^WT came out at 0.215 µM; at KRas^G12S it was 0.505 µM; on KRas^Q61H, 0.228 µM.

As to `CCc1cccc2cccc(N3CCc4c(nc(OCC56CCCN5CCC6)nc4N4CCC(OCC(N)=O)CC4)C3)c12` [Example 89, 2-((1-(7-(8-ethylnaphthalen-1-yl)-2-((tetrahydro-1H-pyrrolizin-7a(5H)-yl)methoxy)-5,6,7,8-tetrahydropyrido[3,4-d]pyrimidin-4-yl)piperidin-4-yl)oxy)acetamide], the IC50 at KRas^G12V was found to be 0.593 µM; on KRas^G13D, 1.13 µM; on KRas^G12A it was 0.427 µM; at KRas^G12D it was 7.11 µM; on KRas^G12R, 0.219 µM; at KRas^G12C it was 0.465 µM. The values for the IC50 on KRas^WT, on KRas^G12S and on KRas^Q61H were 0.959 µM, 0.721 µM and 0.929 µM, respectively.
